Reference: patent US7256190B2, “Thiazole compounds useful as inhibitors of protein kinase” (Vertex Pharmaceuticals Incorporated, priority 2001, dated 2007)

Key:
Format in all cases: biochemical
GSK3-β (AA 1-420) = GSK3-β (AA 1-420) (Homo sapiens, UniProt P49841); test: GSK-3 inhibition assay (coupled enzyme system); conditions: 10 μM ATP, 300 μM peptide, 60 nM GSK-3β, 30° C.
Protocol: Compounds were screened for their ability to inhibit GSK3-β (AA 1-420) activity using a standard coupled enzyme system (Fox et al. (1998) Protein Sci. 7, 2249). Reactions were carried out in a solution containing 100 mM HEPES (pH 7.5), 10 mM MgCl2, 25 mM NaCl, 300 μM NADH, 1 mM DTT and 1.5% DMSO. Final substrate concentrations in the assay were 10 μM ATP (Sigma Chemicals, St Louis, Mo.) and 300 μM peptide (HSSPHQS(PO3H2)EDEEE, American Peptide, Sunnyvale, Calif.). Reactions were carried out at 30° C. and 60 nM GSK-3β. Final concentrations of the components of the coupled enzyme system were 2.5 mM phosphoenolpyruvate, 300μM NADH, 30 μg/ml pyruvate kinase and 10 μg/ml lactate dehydrogenase.
An assay stock buffer solution was prepared containing all of the reagents listed above with the exception of ATP and the test compound of interest. 59 μl of the test reaction was placed in a 96 well ½-diameter plate (Corning, Corning, N.Y.) then treated with 1 μl of a 2 mM DMSO stock containing the test compound (final compound concentration 30 μM). The plate was incubated for ˜10 minutes at 30° C. then the reaction initiated by addition of 7 μl of ATP (final concentration 10 μM). Rates of reaction were obtained using a Molecular Devices Spectramax plate reader (Sunnyvale, Calif.) over a 5 minute read time at 30° C.
(§1) The compound numbers correspond to the compound numbers in Table 1.

Aurora2 = target: T1, Aurora2 (Homo sapiens, UniProt O14965); test: Aurora2 inhibition assay (coupled enzyme assay); conditions: 800 μM peptide LRRASLG, 70 nM Aurora2, 30° C.
T1 sequence (O14965 1-403): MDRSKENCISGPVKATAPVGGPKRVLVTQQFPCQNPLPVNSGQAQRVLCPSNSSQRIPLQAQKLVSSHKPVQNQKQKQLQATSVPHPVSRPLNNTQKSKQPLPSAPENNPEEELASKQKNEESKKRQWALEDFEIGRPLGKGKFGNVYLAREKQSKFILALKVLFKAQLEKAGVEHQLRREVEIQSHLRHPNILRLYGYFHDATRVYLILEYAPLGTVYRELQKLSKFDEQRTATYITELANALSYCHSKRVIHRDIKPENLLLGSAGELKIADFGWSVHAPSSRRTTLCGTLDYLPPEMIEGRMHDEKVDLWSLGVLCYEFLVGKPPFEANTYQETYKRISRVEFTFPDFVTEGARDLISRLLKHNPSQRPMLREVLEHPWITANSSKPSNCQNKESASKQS
Protocol: Compounds are screened in the following manner for their ability to inhibit Aurora2 using a standard coupled enzyme assay (Fox et al (1998). Protein Sci 7, 2246). To an assay stock buffer solution containing 0.1M HEPES 7.5, 10 mM MgCl2, 1 mM DTT, 25 mM NaCl, 2.5 mM prosphoenolpyruvate, […], […] pyruvate kinase, […] lactate dehydrogenase, […], and 800 μM peptide (LRRASLG, American Peptide, Sunnyvale, Calif.) is added a DMSO solution of a compound of the present invention to a final concentration of 30 μM. The resulting mixture is incubated at 30° C. for 10 minutes. The reaction was initiated by the addition of 10 μL of Aurora2 stock solution to give a final concentration of 70 nM in the assay. The rates of reaction are obtained by monitoring absorbance at 340 nm over a 5 minute read time at 30° C. using a BioRad Ultramark plate reader (Hercules, Calif.). The IC50 values are determined from the rate data as a function of inhibitor concentration.
as §1

Syk = Syk (Homo sapiens, UniProt P43405); test: Syk inhibition assay (coupled enzyme assay); conditions: 200 μM ATP, 4 μM poly Gly-Tyr peptide, 30° C.
Protocol: Reactions were carried out in 100 mM HEPES pH 7.5, 10 mM MgCl2, 25 mM NaCl, 1 mM DTT and 1.5% DMSO. Final substrate .concentrations in the assay were 200 μM ATP (Sigmachemical Co.) and 4 μM poly Gly-Tyr peptide (Sigma Chemical Co.). Assays were carried out at 30° C. and 200 nM Syk. Final concentrations of the components of the coupled enzyme system were 2.5 mM phosphoenolpyruvate, 300 μM NADH, 30 μg/ml pyruvate kinase and 10 μg/ml lactate dehydrogenase.
An assay stock buffer solution was prepared containing all of the reagents listed above, with the exception of Syk, DTT and the test compound of interest. 56 μl of the test reaction was placed in a 96 well plate followed by the addition of 1 μl of 2 mM DMSO stock containing the test compound (final compound concentration 30 μM). […] Rates of reaction were obtained using a BioRad Ultramark plate reader (Hercules, Calif.) over a 5 minute read time at 30° C.
as §1

Chain of GSK3-β (AA 1-420) (P49841 whole entry, the tested form may be a part): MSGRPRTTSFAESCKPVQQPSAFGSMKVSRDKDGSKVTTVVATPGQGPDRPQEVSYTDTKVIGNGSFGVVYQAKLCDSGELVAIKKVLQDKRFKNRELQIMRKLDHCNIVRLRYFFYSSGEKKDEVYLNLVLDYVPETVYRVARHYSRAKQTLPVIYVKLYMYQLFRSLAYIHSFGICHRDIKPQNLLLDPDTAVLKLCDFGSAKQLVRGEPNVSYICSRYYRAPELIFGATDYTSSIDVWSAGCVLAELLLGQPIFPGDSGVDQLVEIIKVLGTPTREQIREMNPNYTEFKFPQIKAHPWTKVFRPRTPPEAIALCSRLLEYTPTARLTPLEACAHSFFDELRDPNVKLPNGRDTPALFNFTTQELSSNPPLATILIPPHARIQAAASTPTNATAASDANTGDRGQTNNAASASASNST

Row | SMILES | Ki (GSK3-β (AA 1-420)) [µM] | IC50 (Aurora2) [µM] | IC50 (Syk) [µM]
1 | Fc1cccc(F)c1COc1cccc(Nc2nccc(-c3nccs3)n2)c1 [Compound I-94] | < 0.1 | < 0.5 | < 0.5
2 | Clc1cccc(Nc2nccc(-c3nccs3)n2)c1 [Compound I-22] | < 0.1 | < 0.5 | < 0.5
3 | Clc1ccc(Nc2nccc(-c3nccs3)n2)cc1 [Compound I-46] | < 0.1 | > 2 | > 2
4 | CS(=O)(=O)c1ccc(COc2cccc(Nc3nccc(-c4nccs4)n3)c2)cc1 [Compound I-5] | < 0.1 | > 2 | < 0.5
5 | Oc1cccc(Nc2nccc(-c3nccs3)n2)c1 [Compound I-11] | < 0.1 | < 0.5 | < 0.5
6 | Brc1cccc(Nc2nccc(-c3nccs3)n2)c1 [Compound I-34] | < 0.1 | < 0.5 | < 0.5
7 | Fc1ccc(COc2cccc(Nc3nccc(-c4nccs4)n3)c2)cc1 [Compound I-109] | < 0.1 | > 2 | > 2
8 | Ic1cccc(Nc2nccc(-c3nccs3)n2)c1 [Compound I-31] | < 0.1 | < 0.5 | < 0.5
9 | c1cc(Nc2nccc(-c3nccs3)n2)cc(OCC2CCCCC2)c1 [Compound I-76] | < 0.1 | > 2 | > 2
10 | Clc1ccc(COc2cccc(Nc3nccc(-c4nccs4)n3)c2)cc1Cl [Compound I-2] | > 1 | > 2 | > 2
11 | c1ccc(COc2cccc(Nc3nccc(-c4nccs4)n3)c2)cc1 [Compound I-7, (3-Benzyloxy-phenyl)-(4-thiazol-2-yl-pyrimidin-2-yl)-amine] | – | > 2 | < 0.5
12 | FC(F)(F)c1cccc(Nc2nccc(-c3nccs3)n2)c1 [Compound I-37] | < 0.1 | 0.5 to 2 | < 0.5
13 | c1ccc(Oc2cccc(Nc3nccc(-c4nccs4)n3)c2)cc1 [Compound I-4] | < 0.1 | 0.5 to 2 | 0.5 to 2
14 | c1cc(Nc2nccc(-c3nccs3)n2)cc(OCCn2cccc2)c1 [Compound I-29] | < 0.1 | < 0.5 | < 0.5
15 | NS(=O)(=O)c1ccc(Nc2nccc(-c3nccs3)n2)cc1 [Compound I-55] | < 0.1 | < 0.5 | < 0.5
16 | c1cncc(COc2cccc(Nc3nccc(-c4nccs4)n3)c2)c1 [Compound I-23] | < 0.1 | < 0.5 | < 0.5
17 | Cc1ccc(Nc2nccc(-c3nccs3)n2)cc1 [Compound I-67] | 0.1 to 1 | < 0.5 | < 0.5
18 | FC(F)(F)c1cccc(COc2cccc(Nc3nccc(-c4nccs4)n3)c2)c1 [Compound I-106] | < 0.1 | > 2 | > 2
19 | COc1cccc(Nc2nccc(-c3nccs3)n2)c1 [Compound I-25] | < 0.1 | 0.5 to 2 | < 0.5
20 | Clc1cccc(COc2cccc(Nc3nccc(-c4nccs4)n3)c2)c1Cl [Compound I-112] | < 0.1 | > 2 | > 2
21 | Fc1cccc(Nc2nccc(-c3nccs3)n2)c1 [Compound I-19] | < 0.1 | 0.5 to 2 | 0.5 to 2
22 | Fc1ccc(Nc2nccc(-c3nccs3)n2)cc1 [Compound I-43] | < 0.1 | > 2 | > 2
23 | Clc1ccccc1COc1cccc(Nc2nccc(-c3nccs3)n2)c1 [Compound I-88] | < 0.1 | 0.5 to 2 | > 2
24 | c1cc(Nc2nccc(-c3nccs3)n2)cc(OCc2ccncc2)c1 [Compound I-8] | < 0.1 | < 0.5 | > 2
25 | c1cc(Nc2nccc(-c3nccs3)n2)cc(Oc2ccncc2)c1 [Compound I-56] | – | 0.5 to 2 | 0.5 to 2
26 | O=[N+]([O-])c1cccc(Oc2cccc(Nc3nccc(-c4nccs4)n3)c2)c1 [Compound I-59] | – | > 2 | > 2
